# Reference: patent publication US10543227B2, “Hair growth composition” (RIKEN, priority 2015, dated 2020)
# Where “and” joins values, the source holds several entries; their conditions need not be identical. Equal entries are not always repeated. Where two headings read alike, the source gives them in different places.
# Assays:
# [1] = test system: hair-shaved back sites of C3H/HeN mice; assay: Telogen phase model, Test 1: hair growth at hair-shaved back sites; type: in vivo
# Experimental: (§1) C3H/HeN mice (Charles River Japan (Kanagawa, Japan)) of 6 weeks old, the hair cycle of which repeatedly proceeds anagen phase, catagen phase and telogen phase in this order, were raised for a week for acclimatization. At the age of 7 weeks (the telogen phase is started at the age), hairs on the back were shaved off by an electric clipper and a shaver. After the mice were raised overnight, application of a test solution (200 μL per site) to the hair-shaved site was initiated.
# (§2) In both of Test 1 and Test 2, each test solution was applied to the hair-shaved back sites of 5-12 mice per group, daily at a frequency of once a day. […] Alternatively, where needed, the hair growth effects were evaluated by calculating % hair-growth areas.
# (§3) The evaluation results of Test 1 and Test 2 are shown in Table 1 and Table 2, respectively. Evaluation results were shown by scores based on the following criteria: when the hair-growth area calculated was 0% or more and less than 10%, score 1 was given; when the hair-growth area calculated was 10% or more and less than 25%, score 2 was given, when the hair-growth area calculated was 25% or more and less than 50%, score 3 was given; when the hair-growth area calculated was 50% or more and less than 75%, score 4 was given; and when the hair-growth area calculated was 75% or more, score 5 was given.
# [2] = test system: hair-shaved back sites of C3H/HeN mice; assay: Telogen phase model, Test 2: hair growth at hair-shaved back sites; type: in vivo
# Experimental: as §1, §2, §3
# [3] = Experimental: (§4) Each test drug was applied to hair-shaved back sites (in an amount of 200 μL per site) of 5-6 animals per group, daily at a frequency of once a day. At 10 minutes and 30 minutes after the application on Day 20, average body surface temperature (° C.) was measured. […] Body surface temperature (° C.) was measured by photographing a hair-shaved site and its periphery using an infrared thermography camera (Thermoshot F30S (NEC/Avio, Tokyo, Japan)). The average body surface temperature per area was calculated using InfRec Analyzer NS9500 Standard (NEC/Avio, Tokyo, Japan).
# These animals were subjected to drawing blood from the hearts on the final week for biochemical examination. Each blood was allowed to stand still on ice for 30 minutes and centrifuged twice at 10,000 rpm for 15 minutes (at 4° C.). The supernatants (i.e., sera) were transferred to new containers and stored in a freezer (at −80° C.). The sera were analyzed using a clinical chemistry analyzer for animal (FUJI DRI-CHEM 3500V) and special slides to obtain the values of [GPT (glutamate-pyruvate transaminase), GOT (glutamate oxaloacetate transaminase), GGT (γ-glutamyl transferase), LDH (lactate dehydrogenase), CHE (cholinesterase), CPK (creatine phosphokinase), ALB (albumin), TP (total protein), TCHO (total cholesterol), and TG (triglyceride)].
# mouse skin tissue [4] = assay: Histological examination of skin tissue, anagen phase model (Example 4); type: in vivo, C3H/HeN mice; settings: Positive control 5% MXD; after 24 days application; n = 8
# Experimental: Paraffin sections were prepared, stained with hematoxylin/eosin (HE), and microscopically observed. Hair root density and anagen phase/telogen phase ratio were evaluated.
# mouse skin tissue [5] = settings: positive control, 5% MXD
# Experimental: Specifically, the skin tissue was taken and fixed in 10% neutral buffered formalin. Paraffin sections thereof were prepared, stained with HE, and microscopically observed.
# [6] = Average body surface temperature by infrared thermography (Example 2); settings: Sodium thiosulfate 10% (w/v)
# Experimental: as §4
# [7] = Minoxidil 1% (w/v), Day 54 after initiation of application
# [8] = Minoxidil 1%, serum, final week, N=5
# [9] = Sodium thiosulfate 10% (w/v), Day 69 after initiation of application
# [10] = Sodium thiosulfate 10%, serum, final week, N=5
structure (smiles),measurement,setting,value
"Nc1cc(N2CCCCC2)nc(N)[n+]1[O-] [Minoxidil, minoxidil, reference compound]",hair growth score,"[1]; Minoxidil 1% (w/v), Day 26 after initiation of application",0
same,hair growth score,"[1]; Minoxidil 1% (w/v), Day 32 after initiation of application",0
same,hair growth score,"[1]; Minoxidil 1% (w/v), Day 40 after initiation of application",0
same,hair growth score,"[1]; Minoxidil 1% (w/v), Day 47 after initiation of application",0
same,hair growth score,[1]; [7],0
same,hair growth score,"[1]; Minoxidil 1% (w/v), Day 62 after initiation of application",0
same,hair growth score,"[1]; Minoxidil 1% (w/v), Day 69 after initiation of application",0
same,hair growth score,"[1]; Minoxidil 1% (w/v), Day 76 after initiation of application",0
same,hair growth score,"[1]; Minoxidil 1% (w/v), Day 83 after initiation of application",0
same,hair growth score,"[1]; Minoxidil 1% (w/v), Day 90 after initiation of application",0
same,hair growth score,"[2]; Minoxidil 1% (w/v), Day 27 after initiation of application",0
same,hair growth score,"[2]; Minoxidil 1% (w/v), Day 34 after initiation of application",0
same,hair growth score,"[2]; Minoxidil 1% (w/v), Day 41 after initiation of application",0
same,hair growth score,"[2]; Minoxidil 1% (w/v), Day 48 after initiation of application",0
same,hair growth score,[2]; [7],0
same,hair growth score,"[2]; Minoxidil 1% (w/v), Day 61 after initiation of application",0
same,CHE,[3]; [8],16.6 ± 1.5 U/l
same,TG,[3]; [8],294.0 ± 44.1 mg/dL
same,TP,[3]; [8],4.7 ± 0.5 g/dL
same,ALB,"[3]; mouse, in vivo",2.2 ± 0.1 g/dL
same,CPK,"[3]; mouse, in vivo",321.6 ± 231.5 U/l
same,GGT,"[3]; mouse, in vivo",1.0 ± 0.0 U/l
same,GOT (AST),"[3]; mouse, in vivo",66.8 ± 40.2 U/l
same,LDH,"[3]; mouse, in vivo",237.8 ± 101.6 U/l
same,TCHO,"[3]; mouse, in vivo",167.2 ± 19.3 mg/dL
same,Anagen phase/telogen phase,mouse skin tissue [4],0.11 ± 0.05
same,Hair root density,mouse skin tissue [4],2.04 ± 0.32 /mm
same,Subcutaneous tissue,mouse skin tissue [4],38.4 ± 9 µm
same,tissue abnormality (HE-stained skin sections),mouse skin tissue [5],no individuals having tissue abnormality were found
"O=S([O-])([O-])=S.[Na+].[Na+] [Sodium thiosulfate, sodium thiosulfate]",hair growth score,"[1]; Sodium thiosulfate 1% (w/v), Day 26 after initiation of application",0
same,hair growth score,"[1]; Sodium thiosulfate 1% (w/v), Day 32 after initiation of application",0
same,hair growth score,"[1]; Sodium thiosulfate 1% (w/v), Day 40 after initiation of application",0
same,hair growth score,"[1]; Sodium thiosulfate 1% (w/v), Day 47 after initiation of application",0
same,hair growth score,"[1]; Sodium thiosulfate 1% (w/v), Day 54 after initiation of application",0
same,hair growth score,"[1]; Sodium thiosulfate 1% (w/v), Day 62 after initiation of application",0
same,hair growth score,"[1]; Sodium thiosulfate 1% (w/v), Day 69 after initiation of application",0
same,hair growth score,"[1]; Sodium thiosulfate 1% (w/v), Day 76 after initiation of application",0
same,hair growth score,"[1]; Sodium thiosulfate 1% (w/v), Day 83 after initiation of application",0
same,hair growth score,"[1]; Sodium thiosulfate 1% (w/v), Day 90 after initiation of application",0
same,hair growth score,"[1]; Sodium thiosulfate 2% (w/v), Day 26 after initiation of application",0
same,hair growth score,"[1]; Sodium thiosulfate 2% (w/v), Day 32 after initiation of application",0
same,hair growth score,"[1]; Sodium thiosulfate 2% (w/v), Day 40 after initiation of application",0
same,hair growth score,"[1]; Sodium thiosulfate 2% (w/v), Day 47 after initiation of application",0
same,hair growth score,"[1]; Sodium thiosulfate 2% (w/v), Day 54 after initiation of application",0
same,hair growth score,"[1]; Sodium thiosulfate 2% (w/v), Day 62 after initiation of application",0
same,hair growth score,"[1]; Sodium thiosulfate 2% (w/v), Day 69 after initiation of application",0
same,hair growth score,"[1]; Sodium thiosulfate 2% (w/v), Day 76 after initiation of application",0
same,hair growth score,"[1]; Sodium thiosulfate 2% (w/v), Day 83 after initiation of application",0
same,hair growth score,"[1]; Sodium thiosulfate 2% (w/v), Day 90 after initiation of application",0
same,hair growth score,"[1]; Sodium thiosulfate 2% (w/v), Day 97 after initiation of application",0
same,hair growth score,"[1]; Sodium thiosulfate 4% (w/v), Day 26 after initiation of application",0
same,hair growth score,"[1]; Sodium thiosulfate 4% (w/v), Day 32 after initiation of application",0
same,hair growth score,"[1]; Sodium thiosulfate 4% (w/v), Day 40 after initiation of application",0
same,hair growth score,"[1]; Sodium thiosulfate 4% (w/v), Day 47 after initiation of application",0
same,hair growth score,"[1]; Sodium thiosulfate 4% (w/v), Day 54 after initiation of application",0
same,hair growth score,"[1]; Sodium thiosulfate 10% (w/v), Day 26 after initiation of application",0
same,hair growth score,"[1]; Sodium thiosulfate 10% (w/v), Day 32 after initiation of application",0
same,hair growth score,"[1]; Sodium thiosulfate 10% (w/v), Day 40 after initiation of application",0
same,hair growth score,[1]; [9],"2 (when the hair-growth area calculated was 10% or more and less than 25%, score 2 was given) and 3 (when the hair-growth area calculated was 25% or more and less than 50%, score 3 was given)"
same,time point when hairs start growing (Kaplan-Meier curves),"[1]; as the concentration of sodium thiosulfate increases, Tests 1 and 2, FIGS. 2 and 3",new hairs tend to start growing from the earlier stage
same,start of new hair growth and hair-growth area compared to the negative control,"[1]; sodium thiosulfate alone, 4% (w/v) or more",started growing at early stage after the application
same,hair growth score,"[2]; Sodium thiosulfate 10% (w/v), Day 27 after initiation of application",0
same,hair growth score,"[2]; Sodium thiosulfate 10% (w/v), Day 34 after initiation of application",0
same,hair growth score,[2]; [9],"2 (when the hair-growth area calculated was 10% or more and less than 25%, score 2 was given) and 4 (when the hair-growth area calculated was 50% or more and less than 75%, score 4 was given) and 3 (when the hair-growth area calculated was 25% or more and less than 50%, score 3 was given)"
same,hair growth score,"[2]; Sodium thiosulfate 10% (w/v), Day 90 after initiation of application","3 (when the hair-growth area calculated was 25% or more and less than 50%, score 3 was given) and 5 (when the hair-growth area calculated was 75% or more, score 5 was given) and 4 (when the hair-growth area calculated was 50% or more and less than 75%, score 4 was given)"
same,average body surface temperature,[6]; 10 minutes after the application on Day 20,36.6 °C and 36.3 °C and 35.8 °C and 35.5 °C and 36.7 °C
same,average body surface temperature,[6]; 30 minutes after the application on Day 20,37.1 °C and 36.6 °C and 37 °C and 37.2 °C
same,ALB,[3]; [10],2.2 ± 0.1 g/dL
same,CHE,[3]; [10],19.8 ± 3.1 U/l
same,CPK,[3]; [10],608.4 ± 642.5 U/l
same,GGT,[3]; [10],1.0 ± 0.0 U/l
same,GOT (AST),[3]; [10],83.2 ± 46.3 U/l
same,GPT (ALT),[3]; [10],20.8 ± 2.3 U/l
same,LDH,[3]; [10],277.4 ± 142.6 U/l
same,TCHO,[3]; [10],155.0 ± 10.1 mg/dL
same,TG,[3]; [10],296.8 ± 95.5 mg/dL
same,TP,[3]; [10],4.8 ± 0.3 g/dL
